This test addresses T1, MAGL (recombinant wild-type) (Homo sapiens, UniProt Q99685).
T1 sequence (Q99685 1-303): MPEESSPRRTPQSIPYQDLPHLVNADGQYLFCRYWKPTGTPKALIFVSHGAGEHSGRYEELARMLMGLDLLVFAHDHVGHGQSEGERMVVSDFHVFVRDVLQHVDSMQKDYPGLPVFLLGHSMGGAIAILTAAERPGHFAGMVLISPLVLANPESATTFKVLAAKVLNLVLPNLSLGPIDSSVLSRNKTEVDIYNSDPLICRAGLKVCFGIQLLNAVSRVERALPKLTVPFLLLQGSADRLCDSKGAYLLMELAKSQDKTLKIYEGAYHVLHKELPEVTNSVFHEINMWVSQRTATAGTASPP
The test can be described thus: 4-NPA assay: MAGL inhibitory activity by hydrolysis of 4-nitrophenylacetate, absorbance at 405 nm. In kind it is biochemical. As to conditions: 4-NPA assay (values without footnote [b]). In outline: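 Final assay: 1 nM MAGL and 300 μM 4-nitrophenylacetate in 50 mM Tris, 1 mM EDTA, at RT. Compounds (25 μM–1.7 nM, 3-fold steps) were preincubated 15 min with enzyme. A405 was read 5 min after substrate addition and again after 80 min; activity was taken as the difference between reads.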

In general, IC50 refers to the concentration needed to halve the response being measured. `CC(C)(O)Cc1nc(-c2ccc(C(=O)N3CCN(c4nc5nc(Cl)ccc5o4)CC3)cc2)no1` [Example 32, [4-(5-chlorooxazolo[4,5-b]pyridin-2-yl)piperazin-1-yl]-[4-[5-(2-hydroxy-2-methyl-propyl)-1,2,4-oxadiazol-3-yl]phenyl]methanone]: the IC50 was 653 nM.

For `Cc1ccc2oc(N3CCN(C(=O)c4ccc(N5CC6(CCC6(F)F)C5)cc4)CC3)nc2n1` [Example 206, (4-(5,5-difluoro-2-azaspiro[3.3]heptan-2-yl)phenyl)(4-(5-methyloxazolo[4,5-b]pyridin-2-yl)piperazin-1-yl)methanone], the IC50 came to 61 nM.

Turning to `Cc1ccc2oc(N3CCN(C(=O)c4cnc(N5CCC6(C5)CC6(F)F)cc4C)CC3)nc2n1` (centres unmarked) [Example 223, (6-(1,1-difluoro-5-azaspiro[2.4]heptan-5-yl)-4-methylpyridin-3-yl)(4-(5-methyloxazolo[4,5-b]pyridin-2-yl)piperazin-1-yl)methanone], the IC50 was found to be 4460 nM.

With `Cc1cc(C(=O)N2CCN(c3nc4nc(Cl)ccc4o3)CC2)ccc1OCC(C)(C)C` [Example 64, [4-(5-chlorooxazolo[4,5-b]pyridin-2-yl)piperazin-1-yl]-[4-(2,2-dimethylpropoxy)-3-methyl-phenyl]methanone], the IC50 turned out to be 5 nM.

Regarding `Cc1ccc2oc(N3CCN(C(=O)c4ccc(-n5cc(C(C)(C)C)cn5)cc4)CC3)nc2n1` [Example 53, [4-(4-tert-butylpyrazol-1-yl)phenyl]-[4-(5-methyloxazolo[4,5-b]pyridin-2-yl)piperazin-1-yl]methanone], the IC50 came out at 12 nM.

As for `Cc1ccc2oc(N3CCN(C(=O)c4ccc(-c5ncn(C(C)(C)C)n5)cc4)CC3)nc2n1` [Example 42, [4-(1-tert-butyl-1,2,4-triazol-3-yl)phenyl]-[4-(5-methyloxazolo[4,5-b]pyridin-2-yl)piperazin-1-yl]methanone], the IC50 worked out at 86 nM.

With `Cc1ccc2oc(N3CCN(C(=O)c4ccc(OCCC(F)(F)F)c(-c5ccc(CO)cc5)c4)CC3)nc2n1` [Example 184, [3-[4-(hydroxymethyl)phenyl]-4-(3,3,3-trifluoropropoxy)phenyl]-[4-(5-methyl-[1,3]oxazolo[4,5-b]pyridin-2-yl)piperazin-1-yl]methanone], the IC50 came to 78 nM.

Turning to `Cc1cc(C(=O)N2CCN(c3nc4nc(Cl)ccc4o3)CC2)ccc1-c1noc(C(C)(C)C)n1` [Example 57, [4-(5-tert-butyl-1,2,4-oxadiazol-3-yl)-3-methyl-phenyl]-[4-(5-chlorooxazolo[4,5-b]pyridin-2-yl)piperazin-1-yl]methanone], the IC50 was 5 nM.

For the compound `Cc1ccc2oc(N3CCN(C(=O)c4cc(Cl)cc(-c5ccc(CO)cc5)c4)CC3)nc2n1` [Example 181, [3-chloro-5-[4-(hydroxymethyl)phenyl]phenyl]-[4-(5-methyl-[1,3]oxazolo[4,5-b]pyridin-2-yl)piperazin-1-yl]methanone], the IC50 was 180 nM.

Regarding `C=C(C)Cc1nc(-c2ccc(C(=O)N3CCN(c4nc5nc(Cl)ccc5o4)CC3)cc2)no1` [Example 265, [4-(5-chlorooxazolo[4,5-b]pyridin-2-yl)piperazin-1-yl]-[4-[5-(2-methylallyl)-1,2,4-oxadiazol-3-yl]phenyl]methanone], the IC50 was 30 nM.

For the compound `CC(C)(C)n1cc(-c2ccc(C(=O)N3CCN(c4nc5nc(Cl)ccc5o4)CC3)cc2)cn1` [Example 48, [4-(1-tert-butylpyrazol-4-yl)phenyl]-[4-(5-chlorooxazolo[4,5-b]pyridin-2-yl)piperazin-1-yl]methanone], the IC50 worked out at 15 nM.

On to `CC(C)(F)c1nc(-c2ccc(C(=O)N3CCN(c4nc5nc(Cl)ccc5o4)CC3)cc2)no1` [Example 24, [4-(5-chlorooxazolo[4,5-b]pyridin-2-yl)piperazin-1-yl]-[4-[5-(1-fluoro-1-methyl-ethyl)-1,2,4-oxadiazol-3-yl]phenyl]methanone], for which the concentration for half-maximal inhibition (IC50) is 74 nM.

For `CC(OC1CN(c2ccc(C(=O)N3CCN(c4nc5ncccc5o4)CC3)cc2)C1)C(F)(F)F` (centres unmarked) [Example 193, (4-(oxazolo[4,5-b]pyridin-2-yl)piperazin-1-yl)(4-(3-((1,1,1-trifluoropropan-2-yl)oxy)azetidin-1-yl)phenyl)methanone], the IC50 worked out at 355 nM.

Regarding `CC(C)(C)Cn1cc(-c2ccc(C(=O)N3CCN(c4nc5nc(Cl)ccc5o4)CC3)cc2)cn1` [Example 19, [4-(5-chlorooxazolo[4,5-b]pyridin-2-yl)piperazin-1-yl]-[4-[1-(2,2-dimethylpropyl)pyrazol-4-yl]phenyl]methanone], the IC50 was found to be 2 nM.

On to `CC(C)(C)Cn1cc(-c2ccc(C(=O)N3CCN(c4nc5nc(Cl)ccc5o4)CC3)cc2)nn1` [Example 43, [4-(5-chlorooxazolo[4,5-b]pyridin-2-yl)piperazin-1-yl]-[4-[1-(2,2-dimethylpropyl)triazol-4-yl]phenyl]methanone], for which the IC50 came out at 6 nM.

With `CC(C)(C)c1nc(-c2ccc(C(=O)N3CCN(c4nc5nccc(Cl)c5o4)CC3)cc2)no1` [Example 8, (4-(5-(tert-butyl)-1,2,4-oxadiazol-3-yl)phenyl)(4-(7-chlorooxazolo[4,5-b]pyridin-2-yl)piperazin-1-yl)methanone], the IC50 was determined as 247 nM.

As for `Cc1ccc2oc(N3CCN(C(=O)c4cnc(N5CCC6(C5)CC6(F)F)nc4)CC3)nc2n1` (centres unmarked) [Example 222, (2-(1,1-difluoro-5-azaspiro[2.4]heptan-5-yl)pyrimidin-5-yl)(4-(5-methyloxazolo[4,5-b]pyridin-2-yl)piperazin-1-yl)methanone], the IC50 amounted to 794 nM.

For `Cc1ccc2oc(N3CCN(C(=O)c4cnc(N5CC(OC(C)C(F)(F)F)C5)c(F)c4)CC3)nc2n1` (centres unmarked) [Example 224, (5-fluoro-6-(3-((1,1,1-trifluoropropan-2-yl)oxy)azetidin-1-yl)pyridin-3-yl)(4-(5-methyloxazolo[4,5-b]pyridin-2-yl)piperazin-1-yl)methanone], the 50% inhibitory concentration (IC50) was determined as 90 nM.

On to `CC(C)(F)Cc1nc(-c2ccc(C(=O)N3CCN(c4nc5nc(Cl)ccc5o4)CC3)cc2)no1` [Example 264, [4-(5-chlorooxazolo[4,5-b]pyridin-2-yl)piperazin-1-yl]-[4-[5-(2-fluoro-2-methyl-propyl)-1,2,4-oxadiazol-3-yl]phenyl]methanone], for which the IC50 amounted to 59 nM.

Regarding `CC/C=C/c1nc2ccc(C(=O)N3CCN(c4nc5nc(C)ccc5o4)CC3)cc2o1` [Example 21, [2-[(E)-but-1-enyl]-1,3-benzoxazol-6-yl]-[4-(5-methyloxazolo[4,5-b]pyridin-2-yl)piperazin-1-yl]methanone], the IC50 worked out at 184 nM.

In the case of `Cc1ccc2oc(N3CCN(C(=O)N4CC5(C4)CN(S(=O)(=O)c4cccc(Cl)c4)C5)CC3)nc2n1` [Example 305, [2-(3-chlorophenyl)sulfonyl-2,6-diazaspiro[3.3]heptan-6-yl]-[4-(5-methyloxazolo[4,5-b]pyridin-2-yl)piperazin-1-yl]methanone], the IC50 was 2420 nM.

Regarding `Cc1ccc2oc(N3CCN(C(=O)c4ccc(N5CC(O[C@H](C)C(F)(F)F)C5)cc4)CC3)nc2n1` [Example 201, (R)-(4-(5-methyloxazolo[4,5-b]pyridin-2-yl)piperazin-1-yl)(4-(3-((1,1,1-trifluoropropan-2-yl)oxy)azetidin-1-yl)phenyl)methanone], the IC50 came out at 38 nM.

For the compound `CC(C)(C)c1ncn(-c2ccc(C(=O)N3CCN(c4nc5nc(Cl)ccc5o4)CC3)cc2)n1` [Example 72, [4-(3-tert-butyl-1,2,4-triazol-1-yl)phenyl]-[4-(5-chlorooxazolo[4,5-b]pyridin-2-yl)piperazin-1-yl]methanone], the concentration for half-maximal inhibition (IC50) amounted to 27 nM.

For `CC(C)(C)Cc1noc(-c2ccc(C(=O)N3CCN(c4nc5nc(Cl)ccc5o4)CC3)cc2)n1` [Example 25, [4-(5-chlorooxazolo[4,5-b]pyridin-2-yl)piperazin-1-yl]-[4-[3-(2,2-dimethylpropyl)-1,2,4-oxadiazol-5-yl]phenyl]methanone], the IC50 worked out at 3 nM.

For the compound `Cc1ccc2oc(N3CCN(C(=O)c4cc(OCCC(F)(F)F)cc(-c5ccc(CO)cc5)c4)CC3)nc2n1` [Example 182, [3-[4-(hydroxymethyl)phenyl]-5-(3,3,3-trifluoropropoxy)phenyl]-[4-(5-methyl-[1,3]oxazolo[4,5-b]pyridin-2-yl)piperazin-1-yl]methanone], the IC50 worked out at 379 nM.

`CCC(C)(C)OC1CN(c2ccc(C(=O)N3CCN(c4nc5nc(Cl)ccc5o4)CC3)cc2)C1` [Example 205, (4-(5-chlorooxazolo[4,5-b]pyridin-2-yl)piperazin-1-yl)(4-(3-(tert-pentyloxy)azetidin-1-yl)phenyl)methanone]: the IC50 is 5 nM.

As to `CC(C)(C)OC1CN(c2ccc(C(=O)N3CCN(c4nc5nc(Cl)ccc5o4)CC3)cc2)C1` [Example 204, (4-(3-(tert-butoxy)azetidin-1-yl)phenyl)(4-(5-chlorooxazolo[4,5-b]pyridin-2-yl)piperazin-1-yl)methanone], the IC50 worked out at 18 nM.

In the case of `Cc1ccc2oc(N3CCN(C(=O)c4cnc(N5CCC6(C5)CC6(F)F)c(C)c4)CC3)nc2n1` (centres unmarked) [Example 225, (6-(1,1-difluoro-5-azaspiro[2.4]heptan-5-yl)-5-methylpyridin-3-yl)(4-(5-methyloxazolo[4,5-b]pyridin-2-yl)piperazin-1-yl)methanone], the IC50 came out at 244 nM.

Take `CCC(C)(C)OC1CN(c2ccc(C(=O)N3CCN(c4nc5nc(C)ccc5o4)CC3)cn2)C1` [Example 215, (4-(5-methyloxazolo[4,5-b]pyridin-2-yl)piperazin-1-yl)(6-(3-(tert-pentyloxy)azetidin-1-yl)pyridin-3-yl)methanone]: the IC50 was found to be 70 nM.

The record behind these values is patent publication US20220135591A1, “HETEROCYCLIC COMPOUNDS AS INHIBITORS OF MONOACYLGLYCEROL LIPASE (MAGL)” (Hoffmann-La Roche Inc., priority 2019, published 2022).
